Measured values as given in patent publication US11254668B2, “Pyrazolo[1,5-A]pyrazin-4-yl and related derivatives” (Pfizer Inc., priority 2017, dated 2022).
Read-outs that look alike come from different tables or passages of the source.

Legend:
Assay type in all cases: biochemical
TYK2 = TYK2 (Homo sapiens (Human), UniProt P29597); assay: JAK Caliper Enzyme Assay at 1 mM ATP, TYK2
Experimental: (§1) Compounds of the invention were evaluated by in vitro methods to determine their respective ability to inhibit the JAK kinases (TYK2, JAK1, JAK2, JAK3).
(§2) The human JAK inhibitory activity was determined by using a microfluidic assay to monitor phosphorylation of a synthetic peptide by the recombinant human kinase domain of each of the four members of the JAK family, JAK1, JAK2, JAK3 and TYK2. […] Each assay condition was optimized for enzyme concentration and room temperature incubation time to obtain a conversion rate of 20% to 30% phosphorylated peptide product. Reactions were terminated by the addition of stop buffer containing EDTA. Utilizing the LabChip 3000 mobility shift technology (Caliper Life Science), each assay reaction was sampled to determine the level of phosphorylation. This technology is separation-based, allowing direct detection of fluorescently labeled substrates and products. Separations are controlled by a combination of vacuum pressure and electric field strength optimized for each peptide substrate.
(§3) JAK Caliper Enzyme Assay at 1mM ATP
(§4) Compounds were added to a 384-well plate.
(§5) The data was collected using the HTS Well Analyzer software from Caliper Life Sciences. The data output for data analysis is the percent product converted calculated on peak height (Equation 1). % product converted=100*((product)/(product+substrate)) Equation 1: […]
(§6) The percent effect at each compound concentration was calculated based on the positive and negative control well contained within each assay plate (Equation 2). […] The negative control wells contained DMSO alone (at the same concentration as the compound wells) that was used to set the baseline activity in the assay (i.e., uninhibited JAK1, JAK2, JAK3 or TYK2). % effect=100*([…](positive control-negative control)) Equation 2: […]
(§7) The percent effect was plotted against the compound concentration compound.

JAK1 = JAK1 (Homo sapiens (Human), UniProt P23458); assay: JAK Caliper Enzyme Assay at 1 mM ATP, JAK1
Sequence of JAK1 (P23458 875-1153): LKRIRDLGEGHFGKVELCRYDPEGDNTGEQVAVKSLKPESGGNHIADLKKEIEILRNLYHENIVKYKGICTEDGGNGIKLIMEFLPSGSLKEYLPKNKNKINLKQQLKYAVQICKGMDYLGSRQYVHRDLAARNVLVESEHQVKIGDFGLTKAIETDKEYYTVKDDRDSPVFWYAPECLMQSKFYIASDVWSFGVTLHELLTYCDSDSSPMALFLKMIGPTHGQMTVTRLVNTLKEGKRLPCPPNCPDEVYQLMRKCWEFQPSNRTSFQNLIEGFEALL
Experimental: as §1, §2, §3, §4, §5, §6, §7

JAK3 = JAK3 (Homo sapiens (Human), UniProt P52333); assay: JAK Caliper Enzyme Assay at 1 mM ATP, JAK3
Sequence of JAK3 (P52333 822-1111): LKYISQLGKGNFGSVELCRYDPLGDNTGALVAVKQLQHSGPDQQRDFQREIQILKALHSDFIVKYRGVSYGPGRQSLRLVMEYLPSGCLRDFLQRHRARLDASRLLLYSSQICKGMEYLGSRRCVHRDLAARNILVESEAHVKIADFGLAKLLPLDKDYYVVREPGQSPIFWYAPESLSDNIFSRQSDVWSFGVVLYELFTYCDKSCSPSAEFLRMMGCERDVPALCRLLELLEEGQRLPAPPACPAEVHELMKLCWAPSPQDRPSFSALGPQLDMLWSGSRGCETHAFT
Experimental: as §1, §2, §3, §4, §5, §6, §7

Sequence of TYK2 (P29597 897-1176): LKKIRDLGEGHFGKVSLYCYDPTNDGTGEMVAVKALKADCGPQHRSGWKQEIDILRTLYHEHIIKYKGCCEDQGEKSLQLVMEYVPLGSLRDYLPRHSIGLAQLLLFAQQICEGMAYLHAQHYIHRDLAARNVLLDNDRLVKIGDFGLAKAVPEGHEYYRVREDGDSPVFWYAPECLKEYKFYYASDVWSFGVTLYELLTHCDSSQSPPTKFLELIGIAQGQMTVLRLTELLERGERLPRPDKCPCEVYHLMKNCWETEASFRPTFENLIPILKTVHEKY

| Compound | IC50 (TYK2) [nM] | IC50 (JAK1) [nM] | IC50 (JAK3) [nM] | IC50 (TYK2; JAK Caliper enzyme assay) [nM] | IC50 (JAK1; JAK Caliper enzyme assay) [nM] | IC50 (JAK3; JAK Caliper enzyme assay) [nM] |
| --- | --- | --- | --- | --- | --- | --- |
| N#CC[C@]1(n2ncc(-c3cc(-c4cccc(C(N)=O)n4)cc4ncccc34)n2)C[C@H](C#N)C1 [Example 349, 6-(5-{2-[trans-3-cyano-1-(cyanomethyl)cyclobutyl]-2H-1,2,3-triazol-4-yl}quinolin-7-yl)pyridine-2-carboxamide] | 17 | 738 | > 10000 |  |  |  |
| Cn1nc(-c2cc3ncccc3c(-c3ccn([C@]4(CC#N)C[C@@H](C#N)C4)n3)n2)cc1CO [Example 62, trans-3-(cyanomethyl)-3-(3-{7-[5-(hydroxymethyl)-1-methyl-1H-pyrazol-3-yl]-1,6-naphthyridin-5-yl}-1H-pyrazol-1-yl)cyclobutanecarbonitrile] | 153 | > 10000 | > 10000 |  |  |  |
| Cn1cc(-c2cc(-c3ccn(C4(CC#N)CN(CC(F)(F)F)C4)n3)n3ccnc3c2)cn1 [Example 472, [3-{3-[7-(1-methyl-1H-pyrazol-4-yl)imidazo[1,2-a]pyridin-5-yl]-1H-pyrazol-1-yl}-1-(2,2,2-trifluoroethyl)azetidin-3-yl]acetonitrile] |  |  |  | 5670 | > 10000 | > 10000 |
| Cn1cc(-c2cc(-c3cnn([C@]4(CC#N)C[C@H](C#N)C4)n3)c3cccnc3c2)c(N)n1 [Example 332, cis-3-{4-[7-(3-amino-1-methyl-1H-pyrazol-4-yl)quinolin-5-yl]-2H-1,2,3-triazol-2-yl}-3-(cyanomethyl)cyclobutanecarbonitrile] | 16 | 1690 | > 10000 |  |  |  |
| Cn1cnc(-c2cc3ncccc3c(-c3ccn(C4(CC#N)CN(CC(F)(F)F)C4)n3)n2)c1 [Example 149, [3-{3-[7-(1-methyl-1H-imidazol-4-yl)-1,6-naphthyridin-5-yl]-1H-pyrazol-1-yl}-1-(2,2,2-trifluoroethyl)azetidin-3-yl]acetonitrile] | 125 | > 10000 | > 10000 |  |  |  |
| CCn1cc(-c2cc3ncccc3c(-c3ccn(C4(CC#N)CC(C#N)C4)n3)n2)cn1 (stereo not drawn) [Example 112, cis-3-(cyanomethyl)-3-{3-[7-(1-ethyl-1H-pyrazol-4-yl)-1,6-naphthyridin-5-yl]-1H-pyrazol-1-yl}cyclobutanecarbonitrile] | 12 | 43 | 634 |  |  |  |
| Cn1cc(-c2cc3ncccc3c(-c3ccn(C4(CC#N)CN(CC5CC5)C4)n3)n2)cn1 [Example 101, [1-(cyclopropylmethyl)-3-{3-[7-(1-methyl-1H-pyrazol-4-yl)-1,6-naphthyridin-5-yl]-1H-pyrazol-1-yl}azetidin-3-yl]acetonitrile] | 73 | 2040 | > 10000 |  |  |  |
| N#CC[C@]1(n2cc(-c3nc(-c4cnn(CCO)c4)cc4ncccc34)cn2)C[C@@H](C#N)C1 [Example 6, cis-3-(cyanomethyl)-3-(4-{7-[1-(2-hydroxyethyl)-1H-pyrazol-4-yl]-1,6-naphthyridin-5-yl}-1H-pyrazol-1-yl)cyclobutanecarbonitrile] | 15 | 21 | 1120 |  |  |  |
| N#CCC1(n2ccc(-c3nc(-c4ccn[nH]4)cc4ncccc34)n2)CN(S(=O)(=O)C2CC2)C1 [Example 18, [1-(cyclopropylsulfonyl)-3-{3-[7-(1H-pyrazol-5-yl)-1,6-naphthyridin-5-yl]-1H-pyrazol-1-yl}azetidin-3-yl]acetonitrile] | 20 | 451 | > 10000 |  |  |  |
| COc1nc(-c2cc(-c3cnn([C@]4(CC#N)C[C@H](C#N)C4)c3)n3ccnc3c2)ccc1N [Example 471, cis-3-{4-[7-(5-amino-6-methoxypyridin-2-yl)imidazo[1,2-a]pyridin-5-yl]-1H-pyrazol-1-yl}-3-(cyanomethyl)cyclobutanecarbonitrile] |  |  |  | 33 | 631 | > 10000 |
| Cc1cc(-c2cc3ncccc3c(-c3ccn(C4(CC#N)CN(CC(F)(F)F)C4)n3)n2)n[nH]1 [Example 42, [3-{3-[7-(5-methyl-1H-pyrazol-3-yl)-1,6-naphthyridin-5-yl]-1H-pyrazol-1-yl}-1-(2,2,2-trifluoroethyl)azetidin-3-yl]acetonitrile] | 36 | 1610 | > 10000 |  |  |  |
| Cn1nc(-c2cc3ncccc3c(-c3ccn([C@]4(CC#N)C[C@H](C#N)C4)n3)n2)cc1CO [Example 63, cis-3-(cyanomethyl)-3-(3-{7-[5-(hydroxymethyl)-1-methyl-1H-pyrazol-3-yl]-1,6-naphthyridin-5-yl}-1H-pyrazol-1-yl)cyclobutanecarbonitrile] | 17 | 672 | 6550 |  |  |  |
| N#CCC1(n2ncc(-c3cc(-c4cccc(C(N)=O)c4)cc4ncccc34)n2)CC(C#N)C1 (stereo not drawn) [Example 431, 3-(5-{2-[cis-3-cyano-1-(cyanomethyl)cyclobutyl]-2H-1,2,3-triazol-4-yl}quinolin-7-yl)benzamide] |  |  |  |  | 572 | > 10000 |

Other lines, results leading:

| IC50 (TYK2) [nM] | IC50 (JAK1) [nM] | IC50 (JAK3) [nM] | IC50 (TYK2; JAK Caliper enzyme assay) [nM] | IC50 (JAK1; JAK Caliper enzyme assay) [nM] | IC50 (JAK3; JAK Caliper enzyme assay) [nM] | Compound |
| --- | --- | --- | --- | --- | --- | --- |
| 1290 | > 10000 | > 10000 |  |  |  | Cn1ncc(-c2cc(-c3cnn([C@]4(CC#N)C[C@@H](C#N)C4)n3)c3cccnc3c2)c1CO [Example 328, trans-3-(cyanomethyl)-3-(4-{7-[5-(hydroxymethyl)-1-methyl-1H-pyrazol-4-yl]quinolin-5-yl}-2H-1,2,3-triazol-2-yl)cyclobutanecarbonitrile] |
| 42 | 3740 | > 10000 |  |  |  | CS(=O)(=O)N1CC(CC#N)(n2ccc(-c3nc(-c4cccc(O)n4)cc4ncccc34)n2)C1 [Example 180, [3-{3-[7-(6-hydroxypyridin-2-yl)-1,6-naphthyridin-5-yl]-1H-pyrazol-1-yl}-1-(methylsulfonyl)azetidin-3-yl]acetonitrile] |
| 235 | 8800 | > 10000 |  |  |  | N#CCC1(n2ccc(-c3nc(-c4ncc[nH]4)cc4ncccc34)n2)CN(CC(F)(F)F)C1 [Example 148, [3-{3-[7-(1H-imidazol-2-yl)-1,6-naphthyridin-5-yl]-1H-pyrazol-1-yl}-1-(2,2,2-trifluoroethyl)azetidin-3-yl]acetonitrile] |
| 312 | 6460 | > 10000 |  |  |  | N#CCC1(n2ccc(-c3nc(-c4cnn(C5CCCCO5)n4)cc4ncccc34)n2)CN(CC(F)(F)F)C1 (stereo not shown) [Example 155, [3-(3-{7-[2-(tetrahydro-2H-pyran-2-yl)-2H-1,2,3-triazol-4-yl]-1,6-naphthyridin-5-yl}-1H-pyrazol-1-yl)-1-(2,2,2-trifluoroethyl)azetidin-3-yl]acetonitrile] |
| 20 | 110 | 6420 |  |  |  | CS(=O)(=O)Nc1ccc(-c2cc3ncccc3c(-c3ccn([C@]4(CC#N)C[C@H](C#N)C4)n3)n2)cc1 [Example 257, N-[4-(5-{1-[trans-3-cyano-1-(cyanomethyl)cyclobutyl]-1H-pyrazol-3-yl}-1,6-naphthyridin-7-yl)phenyl]methanesulfonamide] |
| 89 | 189 | > 10000 |  |  |  | N#CC[C@]1(n2cc(-c3nc(-c4cnn(CCO)c4)cc4ncccc34)cn2)C[C@H](C#N)C1 [Example 7, trans-3-(cyanomethyl)-3-(4-{7-[1-(2-hydroxyethyl)-1H-pyrazol-4-yl]-1,6-naphthyridin-5-yl}-1H-pyrazol-1-yl)cyclobutanecarbonitrile] |
| 74 | 4860 | > 10000 |  |  |  | CS(=O)(=O)N1CC(CC#N)(n2ccc(-c3nc(-c4ccnc(O)c4)cc4ncccc34)n2)C1 [Example 186, [3-{3-[7-(2-hydroxypyridin-4-yl)-1,6-naphthyridin-5-yl]-1H-pyrazol-1-yl}-1-(methylsulfonyl)azetidin-3-yl]acetonitrile] |
| 7 | 155 | 2500 |  |  |  | Cn1nc(-c2cc3ncccc3c(-c3ccn([C@]4(CC#N)C[C@H](C#N)C4)n3)n2)cc1N [Example 66, cis-3-{3-[7-(5-amino-1-methyl-1H-pyrazol-3-yl)-1,6-naphthyridin-5-yl]-1H-pyrazol-1-yl}-3-(cyanomethyl)cyclobutanecarbonitrile] |
| 22 | 409 | 8970 |  |  |  | CCn1cc(-c2cc3ncccc3c(-c3ccn([C@]4(CC#N)C[C@@H](C#N)C4)n3)n2)cn1 [Example 113, trans-3-(cyanomethyl)-3-{3-[7-(1-ethyl-1H-pyrazol-4-yl)-1,6-naphthyridin-5-yl]-1H-pyrazol-1-yl}cyclobutanecarbonitrile] |
| 11 | 12 | 454 |  |  |  | CS(=O)(=O)Nc1ccc(-c2cc3ncccc3c(-c3ccn([C@]4(CC#N)C[C@@H](C#N)C4)n3)n2)cc1 [Example 256, N-[4-(5-{1-[cis-3-cyano-1-(cyanomethyl)cyclobutyl]-1H-pyrazol-3-yl}-1,6-naphthyridin-7-yl)phenyl]methanesulfonamide] |
|  |  |  |  | 3900 | > 10000 | N#CC[C@]1(n2ncc(-c3cc(-c4cccc(C(N)=O)c4)cc4ncccc34)n2)C[C@@H](C#N)C1 [Example 432, 3-(5-{2-[trans-3-cyano-1-(cyanomethyl)cyclobutyl]-2H-1,2,3-triazol-4-yl}quinolin-7-yl)benzamide] |
